Consider 2 molecules from patent US20250129083A1, “IMIDAZOTETRAZINE COMPOUNDS AND TREATMENT OF TMZ-RESISTANT CANCERS” (THE BOARD OF TRUSTEES OF THE UNIVERSITY OF ILLINOIS, priority 2022, published 2025).

Structures are written as SMILES. Like-named read-outs stand apart in the source and are kept apart here.

Data set [1] concerns T98G GBM cell line. Briefly: Cell viability assay (Alamar Blue, 7 days), T98G. It is filed as cell-based, human. To be noted: Homo sapiens, T98G, 168 h. The method, then: (§1) Cell Culture and Reagents. All cell lines were grown in a 37° C., 5% CO2, humidified environment, in media containing 1% penicillin/streptomycin. Stable cell line generation of GL261 MGMT+ was purchased from Creative Biogene. Cell culture conditions are as follows: cell lines U87, T98G, and RKO were grown in EMEM with 10% FBS. D54, GL261, GL261 MGMT+, and U118MG cell lines were grown in DMEM with 10% FBS. HCT116 cells were grown in RMPI with 10% FBS. D341 Med cells were grown in EMEM with 20% FBS. Temozolomide (TMZ) was purchased from AK Scientific. TMZ analogues were synthesized as described below. Compounds were dissolved in DMSO (1% final concentration, Fisher Chemical) for cell culture studies.
(§2) Cell Viability Assays. Cells were harvested, seeded in a 96-well plate and allowed to adhere. After three hours, compound was added to each well in DMSO (1% final concentration). Cells were incubated for seven days (unless otherwise noted) before viability was assessed by the Alamar Blue assay. Raptinal (20 μM) was used as a dead control.

For data set [2], the system named is S. typhimurium TA100 strain. Briefly: Ames test, TA100. As to conditions: 30 μM; for Ames test revertant (mutated) colonies, TA100: 5 days, no S9 activation. It is filed as cell-based. The method, then: Next, we measured the mutagenicity of CPZ versus TMZ. TMZ and other DNA methylating chemotherapies are known mutagens, inducing G:C→A:T mutations due to erroneous recognition of O^6-methylguanine. […] CPZ and TMZ (at 30 μM) were also assessed in the E. coli WP2 uvrA pKM101 strain, which is considered one of the more sensitive Ames tester strains available.
Ames Test. Compounds were assessed at the indicated concentrations in the TA100 tester strain using the Muta-ChromoPlate 96-well microplate version of the Ames test (Environmental Bio-Detection Products, Prod. No. 5051) according to manufacturer's instructions. In brief, TA100 S. typhimurium bacteria were grown overnight and plated with compound, growth medium, and indicator (no S9 activation) in 96 well plates. Bacteria were incubated for 5 days before the number of wells per 96 well plate containing revertant colonies were identified colorimetrically.

Data set [3] can be described thus: Maximum tolerated dose / tolerability in mice. It is filed as in vivo. As to conditions: in vivo, 66 mg/kg, once per day over 5 days.
The test system of data set [4] is genomic DNA of D54 cells. Nature of the data set: Quantitation of O6-guanine DNA adducts in cells, D54. The data set is classed as cell-based. To be noted: MGMT-negative; LC-MS/MS. The procedure:
Importantly, because CPZ was designed to release a different active species than TMZ, the alkylation pattern in a cellular context is likely different. Therefore, to assess if alkylation still occurs with CPZ, a DNA alkylation assay was performed. GL261 cells were treated with 100, 300, or 500 μM TMZ or CPZ for 8 hours after which the cells were harvested and genomic DNA was extracted and subsequently hydrolyzed to constituent deoxyribonucleosides. LC-MS/MS analysis was employed to quantify the amount of O^6-methyl-2′-deoxyguanosine (O^6-Me-dG) or O^6-propargylated-2′-O^6-deoxyguanosine (O^6-Prop-dG) in each sample.
Quantitation of O^6-guanine DNA Adducts in Cells. GL261, A172, or D54 cells were plated at 1×10^6 c/w in a 6-well plate before they were treated with compound at the indicated concentration (1% final concentration DMSO). After incubation for the indicated time, the cells were harvested and pelleted. Genomic DNA was extracted using the DNeasy Blood & Tissue Kit (Qiagen, ID: 69504). DNA was then precipitated using the following procedure: 1/10 v/v […] sodium acetate (pH 5.2) and 2.5× v/v ethanol was added to each sample which was then kept at −80° C. for 1 h. […] Hydrolyzed samples were then submitted for LC-MS/MS quantitation along with a synthetic standard. Samples were analyzed with a 5500 QTRAP LC/MS/MS system (AB Sciex) with a 1200 series HPLC system (Agilent).

The test system of data set [5] is U118MG cells. Nature of the data set: Cell viability assay (Alamar Blue, 7 days), U118MG. The data set is classed as cell-based. As to conditions: Homo sapiens, U-118-MG, 168 h, MGMT (+) MMR (+), 600 c/w, SEM, n=3. The procedure:
as §1, §2
(§3) Plated 1500 c/w for GL261; 600 c/w for U87; 600 c/w for U118MG; 1500 c/w for GL261 MGMT+ Incubated ovn and added 1 μL of compound in DMSO the next day. Incubated over 7 days; added Alamar Blue to assess cell viability and used 10 μM Raptinal as dead control. Error is SEM, n=3.

Data set [6] has as its system U87 GBM cell line. Briefly: Cell viability assay (Alamar Blue, 7 days), U87. It is filed as cell-based, human. To be noted: Homo sapiens, 168 h. The method, then: as §1, §2, §3
A short description of data set [7]: Hydrolytic stability studies. It is filed as physicochemical. As to conditions: PBS; for Hydrolytic stability: percentage of prodrug remaining after 2 hours: pH 7.4, 37° C., HPLC; for half-life at 100 μM: 37° C. The method, then: Hydrolytic Stability Studies. Compound (100 μM) was incubated at 37° C. in PBS at pH 7.4 (unless otherwise noted). At the indicated time point, an aliquot was collected and analyzed by HPLC. Compound peaks were integrated and compared to the integration at to calculate the percentage of prodrug remaining.

For data set [8], the system named is GL261 MGMT+ cells. Briefly: Cell viability assay (Alamar Blue, 7 days), GL261 MGMT+. It is filed as cell-based. To be noted: Mus musculus, GL261, 168 h. The procedure: To further explore the ability of CPZ to evade MGMT-mediated resistance, MGMT-expressing T98G cells were pretreated with MGMT inhibitor O6BG followed by treatment with TMZ or CPZ. […] This cell death potentiation by TMZ upon treatment with an MGMT inhibitor was also observed in MGMT-expressing cell lines U118MG and RKO, whereas the efficacy of CPZ was again unaffected. For MGMT (−)/MMR (−) HCT116 cells, negligible potentiation of TMZ cytotoxicity was observed upon pretreatment with O6BG, confirming that loss of MMR capacity, not MGMT expression, was responsible for resistance to TMZ in HCT116 cells. Additionally, human MGMT was knocked into the MGMT-negative mouse glioma cell line, GL261, establishing the novel cell line GL261 MGMT+.
as §1, §2, §3

Where [9] appears, read: MGMT (+) MMR (+), read-out: Activity, T98G.
Where [10] appears, read: female, C57BL/6, mouse, ip, intraperitoneal, read-out: MTD, I.P.
Setting [11] is: MGMT (−) MMR (+), 600 c/w, SEM, n=3, read-out: Activity, U87.
The mark [12] stands for this setting: pH 7.4, calculated from hydrolytic stability data, read-out: Half-life, pH 7.4.
[13] abbreviates: 7 day dose-response, human MGMT knock-in, read-out: IC50, GL261 MGMT+.
Setting [14] is: MGMT (+) MMR (+), 7 days, 1500 c/w, SEM, n=3, read-out: Activity, GL261 MGMT+.

With `C#CCn1nnc2c(Cl)ncn2c1=O` [CPZ, 8-chloro-3-(prop-2-yn-1-yl)imidazo[5,1-d][1,2,3,5]tetrazin-4(3H)-one], the IC50 in data set [1] (setting [9]) came out at 27 ± 6 µM; in data set [5], 17 ± 1 µM; in data set [6] (setting [11]), 16 ± 6 µM; in data set [8] (setting [13]) it was 29 µM; in data set [8] (setting [14]), 29 ± 5 µM. Besides, the “Mutagenicity, TA100” value in data set [2] is given as “non-mutagenic”. For the same molecule, in data set [2], the “Ames test revertant (mutated) colonies, TA100” value is listed as “no revertant colonies”. For the same molecule, in data set [3] (setting [10]), the MTD at 5 days stood at 66 mg/kg. For the same molecule, the “O6-dG alkylation adducts, D54” value in data set [4] is on record as “did not harbor measurable levels of the propargyl adduct”. For the same molecule, in data set [7], the “Hydrolytic stability: percentage of prodrug remaining after 2 hours” value is recorded as 30%. Further, the half-life at 100 μM in data set [7] (setting [12]) was 1.2 h.

In the case of `Cn1nnc2c(C(N)=O)ncn2c1=O` [TMZ, temozolomide, reference compound], the IC50 in data set [1] (setting [9]) was 570 ± 20 µM; in data set [1] (MGMT (+), Alamar Blue, error SEM, n ≥ 3, read-out: Seven-day IC50, T98G) it was over 550 µM; in data set [5], 322 ± 7 µM; in data set [6] (setting [11]) it was 51 ± 8 µM; in data set [6] (MGMT (−), Alamar Blue, error SEM, n ≥ 3, read-out: Seven-day IC50, U87), about 50 µM; in data set [8] (setting [13]), over 1000 µM. The IC50 in data set [8] (setting [14]) was over 1000 µM. For the same molecule, the “Mutagenicity, TA100” value in data set [2] is on record as “mutagenic”. The “Ames test revertant (mutated) colonies, TA100” value in data set [2] is reported as 35/96. Moreover, the MTD at 5 days in data set [3] (setting [10]) was found to be 66 mg/kg; in data set [3] (mouse, intravenous, read-out: MTD, I.V.), 66 mg/kg. In addition, the “O6-dG alkylation adducts, D54” value in data set [4] was “dose-dependent increase in methyl adducts”. Besides, the half-life at 100 μM in data set [7] (pH 7, calculated from hydrolytic stability data, read-out: Half-life, pH 7) is 2.97 ± 0.0833 h; in data set [7] (setting [12]) it was about 1.5 h; in data set [7] (pH 8, calculated from hydrolytic stability data, read-out: Half-life, pH 8), 0.483 ± 0.0167 h. The “Hydrolytic stability: percentage of prodrug remaining after 2 hours” value in data set [7] turned out to be 40%.
